# Results from PMC9948614, “Structural and functional properties of the Kunitz-type and C-terminal domains of Amblyomin-X supporting its antitumor activity” (Frontiers in Molecular Biosciences, 2023).
# Read-outs that look alike come from different tables or passages of the source. No end group written: not given here.
# Legend:
# MIA PaCa-2 [1] = experiment: MTT cell viability assay; assay type: cell-based, human; details: 48 h
# Protocol: (§1) Cell viability was measured by 3-(4,5-dimethylthiazol-2-yl)-2,5-diphenyltetrazolium bromide (MTT) assay, as described elsewhere ([Morais et al., 2016]). […] After 48h, 10% of 5 mg/ml MTT was added to the cells and the plates were incubated for 3 h at 37 °C. Afterward, the medium was discarded, the dark blue formazan crystalline product was dissolved in 100 µL dimethyl sulfoxide (DMSO), and the absorbance was measured in a Spectra MAX 190 microplate reader (Molecular Devices, Sunnyvale, United States) at 540 nm.
# (§2) Amblyomin-X (50 μM) were used for comparative purpose. Besides, staurosporine (5 μM), MG-132 (3 μM) and bortezomib (80 nM) were used as a positive control.
# SK-MEL-28 [2] = experiment: MTT cell viability assay; details: 48 h
# Protocol: as §1, §2
# SK-MEL-28 [3] = details: for Vesicles counts: SK-MEL-28, Alexa-Fluor 488-labeled molecule 20 µM, 37°C, ImageXpress Micro Confocal, mean ± SD of three independent experiments
# Protocol: (§3) An additional step was carried out for the purification of peptides using FPLC. SK-MEL-28 and MIA PaCa-2 (10^5 cells/well) were seeded on sterile 35 mm culture dishes. First, a cell-based assay using fluorochrome conjugated molecules was carried by incubation with Amblyomin-X and its synthetic domains (20 µM) in a fresh medium at 37°C for 4 h and nuclei were stained with […] Syto59 (Invitrogen Life Technologies Inc., United States). Then red and green fluorescence were monitored by LSM 510 Meta confocal microscope (Zeiss, Jena, Germany). […] After treatment with synthetic fragments (all at 5 µM) in a fresh medium at 37°C for 4h, tumor cells were scanned on the x-, y-, and z-axes using a confocal microscope TCS SP8 (Leica Microsystems, GmbH Mannheim, DE) with 40x/1.1 objective lens and laser excitation at 405 and 488 nm with additional brightfield channel using the LAS X software (Leica Microsystems, GmbH Mannheim, DE). The images were deconvolved in Huygens Essential version 22.04 (Scientific Volume Imaging, Netherlands).
# (§4) Following the same rationale, after treatment, cells were incubated with Alexa Fluor 555 TrF (100 μg/ml), Alexa Fluor 555 CTxB (50 μg/ml) or Alexa Fluor 555 dextran (1 mg/ml) in the binding medium at 37 °C for 20 min. Also, to evaluate cargo-delivery ability of C-ter, tumor cells were incubated with p15 (100 μM) or this molecule conjugate to C-ter (100 μM) for 4 h. […] Finally, evaluation of C-ter derived fragments (all at 10 μM) were investigated after 4 h of treatment.
# (§5) In all 96 wells plate assays, nuclei were stained with Hoechst 33342 and fluorescence was monitored by a Molecular Devices ImageXpress Micro Confocal plate-scanning microscope (Molecular Devices, Sunnyvale, CA). Vesicles count were analyzed using MetaXpress software (Molecular Devices, CA) with Transfluor Application Module.
# FXa = molecular target: T1, FXa (Homo sapiens, UniProt P00742); experiment: FXa activity assay, chromogenic substrate S-2765; assay type: biochemical; details: FXa 40 nM, 30 min 37 °C, 20 mM Tris–HCl, PS/PC 2 µM, 5 mM CaCl2, pH 8.0, S-2765 200 µM, 405 nm
# T1 construct: the active factor X (FXa)
# Protocol: Supplementary material 1 - FXa activity assays - FXa (40 nM) was incubated with varying concentrations of the Amblyomin-X recombinant protein and the synthetic domains for 30 min at 37 °C in 20 mM Tris–HCl containing PS/PC (2 µM) and 5 mM CaCl2, pH 8.0. Cleavage of the chromogenic substrate S-2765 (200µM, Chromogenix, UK) was monitored at 405 nm (SpectraMax 190, Molecular Devices, USA). The percentage of inhibition was determined from the residual activity of the enzymes as previously reported15, 16.
# SK-MEL-28 [4] = experiment: Cellular uptake by confocal laser scanning microscopy; details: SK-MEL-28, Alexa Fluor 488-labeled molecule 20 µM, 4 h, 37°C
# Protocol: as §3
# SK-MEL-28 [5] = experiment: Microinjection assay, cell death by PI staining; assay type: cell-based, human; details: SK-MEL-28, microinjection of 488-labeled molecule, both 20 µM, 4 h; about 50 cells per condition
# Protocol: SK-MEL-28 cells were plated on glass Cellocate coverslips for 24 h before injection. […] Staurosporine (10 µM) was added directly to the medium for 6 h and was used as a control for PI staining. Ctrl cells were maintained in a culture medium. The solution was injected into the cytoplasm an average of 50 cells for each condition (compensation pressure: 30 hPa; injection pressure: 100 hPa; injection time: 0.3 s). Immediately after injection, cells were replaced with fresh medium in the incubator at 37 °C. After 4 h, cells were stained with PI (1 μg/ml – contain RNAse A 100 ng/ml) for 15 min at r.t.. Then, cells were washed twice with 1X PBS and fixed with 4% paraformaldehyde for 15 min at r.t... Finally, cells were washed with 1X PBS and one drop of solution anti-fade mounting Vectashield® (Vecta Labs) was applied on the slide with the coverslip containing the cells facing down and, then, sealed. The analysis was performed in Leica SP8 confocal microscope (Leica, Germany): Green fluorescence was used to identify microinjected cells and red fluorescence to score cell death.
# dynein chains = experiment: Gene expression of dynein chains by real-time PCR; assay type: cell-based, human
# Protocol: Gene expression was evaluated via quantitative real-time polymerase chain reaction (qPCR) according to standard protocols previously reported by our group ([Pacheco et al., 2014]; [Morais et al., 2016]). Briefly, after cell treatment, the total RNA was extracted using the RNeasy kit (Qiagen, Netherlands) followed by DNase treatment, Then, cDNA strands were constructed using a SuperScript® III First-Strand Synthesis kit (InvitrogenTM, Life Technologies Inc., United States), according to manufacturer’s instructions. Finally, the samples were applied in a SYBR® green (Applied Biosystems, United States)-based reaction with specific and validated primers to evaluate mRNA levels of genes coding for dynein chains. RNA levels were normalized to glyceraldehyde 3-phosphate dehydrogenase (GAPDH) and quantified using the Livak 2^−ΔΔCT method ([Livak and Schmittgen, 2001]). The experiments were conducted by Step One Plus® PCR real-time system (Applied Biosystems, United States).
# SK-MEL-28 [6] = details: for Uptake of fluorescent (FITC) peptide by cells: SK-MEL-28, 5 or 10 µM, 6 h, ImageXpress Micro Confocal / confocal TCS SP8
# Protocol: An additional step was carried out for the purification of peptides using FPLC. SK-MEL-28 and MIA PaCa-2 (10^5 cells/well) were seeded on sterile 35 mm culture dishes. […] […] The images were deconvolved in Huygens Essential version 22.04 (Scientific Volume Imaging, Netherlands).
# Following the same rationale, after treatment, cells were incubated with Alexa Fluor 555 TrF (100 μg/ml), Alexa Fluor 555 CTxB (50 μg/ml) or Alexa Fluor 555 dextran (1 mg/ml) in the binding medium at 37 °C for 20 min. Also, to evaluate cargo-delivery ability of C-ter, tumor cells were incubated with p15 (100 μM) or this molecule conjugate to C-ter (100 μM) for 4 h. […]
# as §5
# MIA PaCa-2 [7] = details: MIA PaCa-2, Alexa-Fluor 488-labeled molecule 20 µM, 37°C, ImageXpress Micro Confocal, Transfluor module, mean ± SD of three independent experiments
# Protocol: as §3, §4, §5
# [8] = MIA PaCa-2, synthetic domains 0.2–100 μM
# [9] = SK-MEL-28, synthetic domains 0.2–100 μM
# [10] = tumor cells, other fragments and TAT-Kunitz data not shown
# T1 sequence (P00742 235-488 limits assumed): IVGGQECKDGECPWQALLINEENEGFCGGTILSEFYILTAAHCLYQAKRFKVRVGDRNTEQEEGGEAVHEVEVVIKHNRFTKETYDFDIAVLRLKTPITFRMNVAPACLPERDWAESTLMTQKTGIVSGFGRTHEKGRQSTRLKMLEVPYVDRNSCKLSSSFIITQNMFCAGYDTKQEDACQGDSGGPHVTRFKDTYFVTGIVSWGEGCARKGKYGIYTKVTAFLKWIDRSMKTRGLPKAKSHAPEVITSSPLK
# T1 sequence (P00742 41-179 partner limits assumed): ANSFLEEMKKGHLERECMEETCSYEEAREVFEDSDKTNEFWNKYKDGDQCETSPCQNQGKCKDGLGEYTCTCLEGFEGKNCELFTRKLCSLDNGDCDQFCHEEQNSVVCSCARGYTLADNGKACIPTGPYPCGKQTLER
substance,measurement,setting,value
C^#WMSPRHLGT C^#EEQTHFHFESPKLISFKVQDYWILNDIMKKNLTGISLKSEEEDADSGEID (disulfide) [p15-C-ter],Effect on cell viability (MTT),"MIA PaCa-2 [1]; MIA PaCa-2, 100 μM",decreased cell viability
same,Effect on cell viability (MTT),"SK-MEL-28 [2]; SK-MEL-28, 100 μM",decreased cell viability
same,Internalization relative to the non-conjugated molecule (p15),SK-MEL-28 [3],eight-fold more internalized
ANSKAVCNLPKAGDETCSNKTEIRWYYNGTACEAFIFKGCGGNDNNFDRVDDCQRLC-NH2 (also: bicyclic or more (positions not given here)) [Kunitz],Effect on cell viability (MTT),MIA PaCa-2 [1]; [8],no alteration
same,Inhibitory activity against FXa,FXa,lower inhibitory activity against FXa than TFPI-K2
same,Effect on cell viability (MTT),SK-MEL-28 [2]; [9],no alteration
same,Number of vesicles relative to complete Amblyomin-X,SK-MEL-28 [3],ten-fold less
same,"Uptake by cells (green fluorescence, confocal)",SK-MEL-28 [4],not detected inside the cells
same,Propidium iodide (PI) staining after microinjection,SK-MEL-28 [5],26%
GRKKRRQRRRPPQANSKAVCNLPKLAGDETCSNKTEIRWYYNGTACEAFIFKGCGGNDNNFDRVDDCQRLC-NH2 (also: bicyclic or more (positions not given here)) [TAT-Kunitz],Cytotoxicity (MTT),"SK-MEL-28 [2]; TAT-Kunitz at 20 and 50 μM, cell line not stated at the place (Figure 7B)",significant cytotoxicity activity
FKVQDYWILNDIMKKNLTGI* [F2C],Gene expression of dynein chains,"dynein chains; SK-MEL-28, 5 µM, 24 h, real-time PCR, normalized to GAPDH",modulate gene expression of all dynein chains evaluated
same,Gene expression of dynein chains,dynein chains; [10],modulated gene expression of dynein chains
same,Relative fluorescence units (RFU) compared with other peptides,"SK-MEL-28 [6]; SK-MEL-28, 10 µM, even in short times of treatment",higher values of relative fluorescence units (RFU)
same,Uptake of fluorescent (FITC) peptide by cells,SK-MEL-28 [6],detected in the cell
EEQTHFHFESPKLIFKVQDYWILNDIMKKNLTGISLKSEEEDADSGEID [C-ter],Effect on cell viability (MTT),MIA PaCa-2 [1]; [8],no alteration
same,Gene expression of dynein chains,dynein chains; [10],modulated gene expression of dynein chains
same,Uptake of fluorescent (FITC) peptide by cells,SK-MEL-28 [6],uptaken
same,Cells counts per well,"SK-MEL-28 [6]; SK-MEL-28, fluorescent peptides 10 µM, all treatments investigated",No alterations in cells counts
same,Effect on cell viability (MTT),SK-MEL-28 [2]; [9],no alteration
same,Vesicles counts,MIA PaCa-2 [7]; 0.25 h,4.36 ± 2.03
same,Vesicles counts,MIA PaCa-2 [7]; 0.5 h,17.50 ± 24.63
same,Vesicles counts,MIA PaCa-2 [7]; 1 h,10.59 ± 7.15
same,Vesicles counts,MIA PaCa-2 [7]; 2 h,171.11 ± 248.57
same,Vesicles counts,MIA PaCa-2 [7]; 4 h,802.63 ± 353.12
same,Vesicles counts,"SK-MEL-28 [3]; 0.25 h, MetaXpress Transfluor module",30.84 ± 17.2
same,Vesicles counts,"SK-MEL-28 [3]; 0.5 h, Transfluor module",35.56 ± 21.09
same,Vesicles counts,"SK-MEL-28 [3]; 1 h, Transfluor module",62.17 ± 11.20
same,Vesicles counts,"SK-MEL-28 [3]; 2 h, Transfluor module",558.48 ± 189.00
same,Vesicles counts,"SK-MEL-28 [3]; 4 h, Transfluor module",1210.74 ± 379.14
same,"Uptake by cells (green fluorescence, confocal)",SK-MEL-28 [4],uptaken
